Data taken from ChEMBL document CHEMBL4715755, “Isothiouronium modification empowers pyrimidine-substituted curcumin analogs potent cytotoxicity and Golgi localization” (Eur J Med Chem, 2016).
pIC50: −log10 of the molar value. The source made the active and inactive calls. The rule behind the calls is not given here.

Tests used:
CHO [1] = assay: Cytotoxicity against CHO cells overexpressing 3-O-sulfotransferase 3 assessed as reduction in cell viability at 10 uM incubated for 48 hrs by resazurin reagent based fluorescence assay; parameters: species or system Cricetulus griseus; settings: chinese hamster
CHO [2] = assay: Cytotoxicity against CHO cells overexpressing 3-O-sulfotransferase 1 assessed as reduction in cell viability at 10 uM incubated for 48 hrs by resazurin reagent based fluorescence assay; parameters: species or system Cricetulus griseus; settings: chinese hamster
[3] = Cytotoxicity against heparan sulfate-deficient CHO-677 cells assessed as reduction in cell viability at 10 uM incubated for 48 hrs by resazurin reagent based fluorescence assay; parameters: species or system Cricetulus griseus; settings: chinese hamster, cho-677, 48 h
A549 [4] = assay: Cytotoxicity against human A549 cells assessed as reduction in cell viability at 10 uM incubated for 48 hrs by resazurin reagent based fluorescence assay; type: functional
HT-29 = assay: Cytotoxicity against human HT-29 cells assessed as reduction in cell viability incubated for 48 hrs by resazurin reagent based fluorescence assay; type: functional; settings: HT-29, 48 h
HCT-116 = assay: Cytotoxicity against human HCT-116 cells assessed as reduction in cell viability incubated for 48 hrs by resazurin reagent based fluorescence assay; type: functional; settings: HCT-116, 48 h
NCI-H1299 = assay: Cytotoxicity against human NCI-H1299 cells assessed as reduction in cell viability incubated for 48 hrs by resazurin reagent based fluorescence assay; type: functional; settings: NCI-H1299, 48 h
[5] = Cytotoxicity against GAG-deficient CHO-745 cells assessed as reduction in cell viability at 10 uM incubated for 48 hrs by resazurin reagent based fluorescence assay; parameters: species or system Cricetulus griseus; settings: chinese hamster, cho-745, 48 h
A549 [6] = assay: Cytotoxicity against human A549 cells assessed as reduction in cell viability incubated for 48 hrs by resazurin reagent based fluorescence assay; type: functional; settings: A549, 48 h
CHO [7] = assay: Cytotoxicity against CHO cells overexpressing 3-O-sulfotransferase 2 assessed as reduction in cell viability at 10 uM incubated for 48 hrs by resazurin reagent based fluorescence assay; parameters: species or system Cricetulus griseus; settings: chinese hamster
CHO [8] = assay: Cytotoxicity against CHO cells overexpressing 3-O-sulfotransferase 4 assessed as reduction in cell viability at 10 uM incubated for 48 hrs by resazurin reagent based fluorescence assay; parameters: species or system Cricetulus griseus; settings: chinese hamster
CHO-K1 = assay: Cytotoxicity against CHO-K1 cells assessed as reduction in cell viability at 10 uM incubated for 48 hrs by resazurin reagent based fluorescence assay; parameters: species or system Cricetulus griseus; settings: chinese hamster, cho-k1, 48 h
[9] = Drug localization in cytoplasm of human A549 cells at 10 uM measured upto 12 hrs by Golgin-97 and DAPI staining based laser scanning confocal microscopic analysis; type: ADME, subcellular; settings: a549, 12 h
[10] = Drug localization in cytoplasm of human A549 cells at 10 uM incubated for 4 hrs by Golgin-97 and DAPI staining based laser scanning confocal microscopic analysis; type: ADME, subcellular; settings: a549, 4 h
[11] = Drug localization in cytoplasm of human HCT-116 cells at 10 uM measured upto 12 hrs by Golgin-97 and DAPI staining based laser scanning confocal microscopic analysis; type: ADME, subcellular; settings: hct-116, 12 h
[12] = Drug localization in golgi bodies of human A549 cells at 10 uM measured upto 12 hrs by Golgin-97 and DAPI staining based laser scanning confocal microscopic analysis; type: ADME, subcellular, Golgi body; settings: a549, 12 h
[13] = Drug localization in golgi vesicles of human A549 cells at 10 uM incubated for 4 hrs by Golgin-97 and DAPI staining based laser scanning confocal microscopic analysis; type: ADME, subcellular, Golgi body; settings: a549, 4 h
[14] = Drug localization in golgi bodies of human HCT-116 cells at 10 uM measured upto 12 hrs by Golgin-97 and DAPI staining based laser scanning confocal microscopic analysis; type: ADME, subcellular, Golgi body; settings: hct-116, 12 h
[15] = Drug localization in golgi bodies of human A549 cells at 10 uM incubated for 4 hrs by Golgin-97 and DAPI staining based laser scanning confocal microscopic analysis; type: ADME, subcellular, Golgi body; settings: a549, 4 h

Row | SMILES | pIC50 (HT-29) | pIC50 (HCT-116) | pIC50 (NCI-H1299) | pIC50 (A549 [6]) | further results
1 | Br.COc1ccc(/C=C/c2cc(/C=C/c3ccc(OC)c(OC)c3)nc(OCCCCSC(=N)N)n2)cc1OC | 6.21 | 5.73 | 5.82 | 5.63 | Activity (CHO [1]): Toxic; Activity (CHO [2]): Toxic; Activity [3]: Toxic; Activity (A549 [4]): Active; Activity [5]: Toxic; Activity (CHO [7]): Toxic; Activity (CHO [8]): Toxic; Activity (CHO-K1): Toxic
2 | COc1ccc(/C=C/c2cc(/C=C/c3ccc(OC)c(OC)c3)nc(OCCCCCCSC(=N)N)n2)cc1OC | 5.76 | 5.69 | 5.43 | 5.68 | 
3 | COc1cc(/C=C/c2cc(/C=C/c3cc(OC)c(OC)c(OC)c3)nc(OCCCCCSC(=N)N)n2)cc(OC)c1OC | 5.73 | 5.68 | 5.38 | 5.54 | 
4 | COc1ccc(/C=C/c2cc(/C=C/c3ccc(OC)c(OC)c3)nc(OCCCCBr)n2)cc1OC | < 4.70 | < 4.70 | < 4.70 | < 4.70 | Activity (CHO [1]): Toxic; Activity (CHO [2]): Toxic; Activity [3]: Toxic; Activity (A549 [4]): Active; Activity [5]: Toxic; Activity (CHO [7]): Toxic; Activity (CHO [8]): Toxic; Activity (CHO-K1): Toxic
5 | COc1ccc(/C=C/c2cc(/C=C/c3ccc(OC)c(OC)c3)nc(OCCCCCSC(=N)N)n2)cc1OC | 5.72 | 5.74 | 5.39 | 5.70 | 
6 | N=C(N)SCCCCOc1nc(/C=C/c2ccccc2)cc(/C=C/c2ccccc2)n1 | 5.76 | 5.73 | 5.35 | 5.34 | 
7 | COc1ccc(/C=C/c2cc(/C=C/c3ccc(OC)cc3)nc(OCCCCBr)n2)cc1 | < 4.70 | < 4.70 | < 4.70 | < 4.70 | Activity (CHO [1]): Non-Toxic; Activity (CHO [2]): Non-Toxic; Activity [3]: Non-Toxic; Activity (A549 [4]): inactive; Drug uptake [9]: Active; Activity [5]: Non-Toxic; Activity (CHO [7]): Non-Toxic; Activity (CHO [8]): Non-Toxic; Drug uptake [10]: Active; Activity (CHO-K1): Non-Toxic; Drug uptake [11]: Active
8 | COc1cc(/C=C/c2cc(/C=C/c3cc(OC)c(OC)c(OC)c3)nc(OCCCCCCSC(=N)N)n2)cc(OC)c1OC | 5.93 | 5.73 | 5.51 | 5.70 | 
9 | COc1cc(/C=C/c2cc(/C=C/c3cc(OC)c(OC)c(OC)c3)nc(OCCCCCCBr)n2)cc(OC)c1OC | < 4.70 | < 4.70 | < 4.70 | < 4.70 | 
10 | COc1cc(/C=C/c2cc(/C=C/c3cc(OC)c(OC)c(OC)c3)nc(OCCCCSC(=N)N)n2)cc(OC)c1OC | 5.66 | 5.42 | 5.29 | 5.37 | 
11 | Br.COc1ccc(/C=C/c2cc(/C=C/c3ccc(OC)cc3)nc(OCCCCCCSC(=N)N)n2)cc1 | 5.67 | 5.70 | 5.43 | 5.71 | Drug uptake [12]: Active; Drug uptake [13]: Active; Drug uptake [14]: Active
12 | N=C(N)SCCCCCCOc1nc(/C=C/c2ccccc2)cc(/C=C/c2ccccc2)n1 | 5.54 | 5.64 | 5.19 | 5.40 | 
13 | COc1ccc(/C=C/c2cc(/C=C/c3ccc(OC)cc3)nc(OCCCCSC(N(C)C)=[N+](C)C)n2)cc1.[Br-] | 5.22 | 5.52 | 5.13 | 5.65 | Activity (CHO [1]): Non-Toxic; Drug uptake [12]: Not Active; Activity (CHO [2]): Non-Toxic; Activity [3]: Non-Toxic; Activity (A549 [4]): Active; Activity [5]: Non-Toxic; Activity (CHO [7]): Non-Toxic; Activity (CHO [8]): Non-Toxic; Activity (CHO-K1): Non-Toxic; Drug uptake [14]: Not Active
14 | COc1cc(/C=C/c2cc(/C=C/c3cc(OC)c(OC)c(OC)c3)nc(OCCCCCBr)n2)cc(OC)c1OC | < 4.70 | < 4.70 | < 4.70 | < 4.70 | 
15 | BrCCCCCOc1nc(/C=C/c2ccccc2)cc(/C=C/c2ccccc2)n1 | < 4.70 | < 4.70 | < 4.70 | < 4.70 | 
16 | COc1ccc(/C=C/c2cc(/C=C/c3ccc(OC)c(OC)c3)nc(OCCCCCCBr)n2)cc1OC | < 4.70 | < 4.70 | < 4.70 | < 4.70 | 
17 | COc1ccc(/C=C/c2cc(/C=C/c3ccc(OC)cc3)nc(OCCCCCCBr)n2)cc1 | < 4.70 | < 4.70 | < 4.70 | < 4.70 | 
18 | BrCCCCOc1nc(/C=C/c2ccccc2)cc(/C=C/c2ccccc2)n1 | < 4.70 | < 4.70 | < 4.70 | < 4.70 | 
19 | COc1ccc(/C=C/c2cc(/C=C/c3ccc(OC)c(OC)c3)nc(OCCCCCBr)n2)cc1OC | < 4.70 | < 4.70 | < 4.70 | < 4.70 | 
20 | Br.COc1ccc(/C=C/c2cc(/C=C/c3ccc(OC)cc3)nc(OCCCCCSC(=N)N)n2)cc1 | 5.69 | 5.71 | 5.53 | 5.71 | Drug uptake [12]: Active; Drug uptake [13]: Active; Drug uptake [14]: Active
21 | COc1cc(/C=C/c2cc(/C=C/c3cc(OC)c(OC)c(OC)c3)nc(OCCCCBr)n2)cc(OC)c1OC | < 4.70 | < 4.70 | < 4.70 | < 4.70 | 
22 | COc1cc(/C=C/c2cc(/C=C/c3cc(OC)c(OC)c(OC)c3)nc(OCCCCSC(N(C)C)=[N+](C)C)n2)cc(OC)c1OC | 4.98 | 5.27 | 4.82 | 4.84 | 
23 | N=C(N)SCCCCCOc1nc(/C=C/c2ccccc2)cc(/C=C/c2ccccc2)n1 | 5.55 | 5.62 | 5.15 | 5.39 | 
24 | COc1ccc(/C=C/c2cc(/C=C/c3ccc(OC)c(OC)c3)nc(OCCCCSC(N(C)C)=[N+](C)C)n2)cc1OC.[Br-] | 5.39 | 5.41 | 5.24 | 5.01 | Activity (CHO [1]): Non-Toxic; Activity (CHO [2]): Non-Toxic; Activity [3]: Non-Toxic; Activity (A549 [4]): Active; Activity [5]: Non-Toxic; Activity (CHO [7]): Non-Toxic; Activity (CHO [8]): Non-Toxic; Activity (CHO-K1): Non-Toxic
25 | COc1ccc(/C=C/c2cc(/C=C/c3ccc(OC)cc3)nc(OCCCCCBr)n2)cc1 | < 4.70 | < 4.70 | < 4.70 | < 4.70 | 
26 | BrCCCCCCOc1nc(/C=C/c2ccccc2)cc(/C=C/c2ccccc2)n1 | < 4.70 | < 4.70 | < 4.70 | < 4.70 | 
27 | Br.COc1ccc(/C=C/c2cc(/C=C/c3ccc(OC)cc3)nc(OCCCCSC(=N)N)n2)cc1 | 6.10 | 6.00 | 6.04 | 6.00 | Activity (CHO [1]): Toxic; Drug uptake [15]: Active; Drug uptake [12]: Active; Activity (CHO [2]): Toxic; Activity [3]: Toxic; Activity (A549 [4]): Active; Activity [5]: Toxic; Activity (CHO [7]): Toxic; Activity (CHO [8]): Toxic; Activity (CHO-K1): Toxic; Drug uptake [14]: Active
